Assay results: US20040006236A1, “Diaminopropionic acid derivatives” (priority 1999, published 2004)

How the values were obtained:
[1] = test system: T lymphocyte proliferation (C57BI/6 spleen cells with irradiated BALB/c spleen cells); test: Mixed lymphocyte reaction (MLR), one-way; format: cell-based, mice; details: Mus musculus, T-lymphocyte; read-out: MLR IC50
Outline: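 One-way murine MLR: C57BI/6 responder splenocytes proliferate against irradiated BALB/c stimulators while exposed to serially diluted antagonists in supplemented RPMI1640 for 3 days. Proliferation read as [3H]-thymidine uptake over a final 6 h pulse (0.5 μCi/well), scintillation counted.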

[2] = biological target: T1, ICAM-1 binding to immobilized Mac-1 (Homo sapiens, UniProt P05107+P11215); test: Mac-1/ICAM-1 screening assay (solid-phase ELISA); details: read-out: Mac-1/ICAM-1 Protein-Protein Assay IC50
T1 construct: made in house; host or cells: transfected 293 cells (Mac-1)
Outline: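 Competitive solid-phase ELISA: membrane Mac-1 from transfected 293 cells coated at 3 μg/mL in 20 mM Hepes pH 7.2/0.14 M NaCl/1 mM MnCl2; compounds (0.12 nM-20 μM, 1:4 series) plus 5dICAM-Ig (40 μg/mL, added) 2 h at 37° C. Bound ICAM-Ig detected with HRP anti-human IgG Fc, TMB, A450; IC50 reported.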

T1 sequence (P05107 23-769, other chains not shown): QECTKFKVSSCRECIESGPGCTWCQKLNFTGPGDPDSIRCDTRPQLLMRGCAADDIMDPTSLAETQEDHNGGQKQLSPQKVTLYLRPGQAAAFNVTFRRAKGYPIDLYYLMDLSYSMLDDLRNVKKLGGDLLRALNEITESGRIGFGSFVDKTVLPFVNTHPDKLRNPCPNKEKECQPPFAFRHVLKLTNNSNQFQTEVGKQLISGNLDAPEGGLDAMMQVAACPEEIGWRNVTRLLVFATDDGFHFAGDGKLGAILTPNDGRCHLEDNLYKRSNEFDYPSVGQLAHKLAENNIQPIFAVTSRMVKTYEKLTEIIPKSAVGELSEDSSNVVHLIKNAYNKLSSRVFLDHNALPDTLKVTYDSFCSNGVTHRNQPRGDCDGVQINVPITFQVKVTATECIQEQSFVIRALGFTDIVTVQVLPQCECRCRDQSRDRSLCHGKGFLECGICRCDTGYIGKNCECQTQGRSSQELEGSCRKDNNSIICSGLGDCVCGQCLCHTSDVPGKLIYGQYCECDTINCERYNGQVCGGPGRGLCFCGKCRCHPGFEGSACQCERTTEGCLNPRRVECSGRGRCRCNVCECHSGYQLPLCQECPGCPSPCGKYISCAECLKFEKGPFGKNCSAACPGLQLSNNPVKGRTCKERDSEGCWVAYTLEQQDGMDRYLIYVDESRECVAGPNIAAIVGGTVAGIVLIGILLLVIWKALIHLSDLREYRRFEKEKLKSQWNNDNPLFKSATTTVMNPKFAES

Row | IC50 [2] [nM] | Compound | IC50 [1] [nM]
1 | 71 | Nc1cccc(CNC(=O)c2ccc(C(=O)N[C@@H](CNC(=O)c3cccs3)C(=O)O)c(Br)c2)c1 [Example 334, N-[4-[[[(3-aminophenyl)methyl]amino]carbonyl]-2-bromobenzoyl]-3-(thiophene-2-carbonyl)amino-L-alanine] | 495
2 | 21 | Cc1cc(C(=O)NCc2cccc(O)c2)cc(Cl)c1C(=O)N[C@@H](CNC(=O)c1cccs1)C(=O)O [Example 338, N-[2-chloro-4-[[[(3-hydroxyphenyl)methyl]amino]carbonyl]-6-methylbenzoyl]-3-[(thiophene-2-carbonyl)amino]-L-alanine] | 21
